PubChem BioAssay AID2060619 (Molecular Pharmacology Branch, DTP, NCI, 2025)
Several values for one entry are separate records, joined by “and”; a condition that tells them apart may be missing. Identical values can stand only once. Blank lines part the entries; values can stand above or below the molecule they belong to.

System: 323965-272-R-J2-PDC complex spheroid viability
Assay: Anticancer human tumor 323965-272-R-J2-PDC patient-derived pancreatic carcinoma cell line growth inhibition [CLK]
Conditions: for viability, T/C: stronger effect = lower value
Procedure, shortened: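 Multi-cell-type spheroids combined patient-derived tumor cells with HUVEC endothelial cells and human mesenchymal stem cells. Paired agents were dosed in half-log steps down from about clinical Cmax, or from 10 microM where Cmax was unknown.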
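Note: spheroids exposed to agents for seven days before readout.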
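Throughout, for viability, T/C: percent of DMSO vehicle control wells so 100% = untreated growth.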

IC50 (curve of compound): 9340 nM and > 10000 nM
SMILES: C#Cc1c(F)ccc2cc(O)cc(-c3ncc4c(N5CC6CCC(C5)N6)nc(OCC56CCCN5CC(F)C6)nc4c3F)c12 (stereo not given)
viability, T/C (compound 0.0316 µM): 101% and 111% | viability, T/C (compound 0.1 µM): 91.2% and 95.5% | viability, T/C (compound 0.316 µM): 106% and 98.5% | viability, T/C (compound 1 µM): 81.5% and 86.9% | viability, T/C (compound 3.16 µM): 63.2% and 75.6% | viability, T/C (compound 10 µM): 48.4% and 55.3%

IC50 (curve of first compound, second compound 0.0316 µM): > 1000 nM | IC50 (curve of first compound, second compound 0.1 µM): > 1000 nM | IC50 (curve of first compound, second compound 0.316 µM): > 1000 nM | IC50 (curve of first compound, second compound 1 µM): < 3.16 nM | IC50 (curve of first compound, second compound 3.16 µM): < 3.16 nM | IC50 (curve of first compound, second compound 10 µM): < 3.16 nM
SMILES: CCN1CCN(Cc2ccc(Nc3ncc(F)c(-c4cc(F)c5nc(C)n(C(C)C)c5c4)n3)nc2)CC1 + CNC(=O)c1ccc(Nc2nc(OC3CCCC3)c3c(-c4ccc5nc(C)oc5c4)c[nH]c3n2)c(OC)c1
viability, T/C (second compound 0.0316 µM, first compound 0.00316 µM): 90.3% | viability, T/C (second compound 0.0316 µM, first compound 0.01 µM): 103% | viability, T/C (second compound 0.0316 µM, first compound 0.0316 µM): 86.9% | viability, T/C (second compound 0.0316 µM, first compound 0.1 µM): 68.4% | viability, T/C (second compound 0.0316 µM, first compound 0.316 µM): 66.2% | viability, T/C (second compound 0.0316 µM, first compound 1 µM): 74.3% | viability, T/C (second compound 0.1 µM, first compound 0.00316 µM): 84.9% | viability, T/C (second compound 0.1 µM, first compound 0.01 µM): 73.4% | viability, T/C (second compound 0.1 µM, first compound 0.0316 µM): 60.6% | viability, T/C (second compound 0.1 µM, first compound 0.1 µM): 63.1% | viability, T/C (second compound 0.1 µM, first compound 0.316 µM): 55.7% | viability, T/C (second compound 0.1 µM, first compound 1 µM): 67.6% | viability, T/C (second compound 0.316 µM, first compound 0.00316 µM): 64.1% | viability, T/C (second compound 0.316 µM, first compound 0.01 µM): 53.4% | viability, T/C (second compound 0.316 µM, first compound 0.0316 µM): 54.2% | viability, T/C (second compound 0.316 µM, first compound 0.1 µM): 44.2% | viability, T/C (second compound 0.316 µM, first compound 0.316 µM): 50.6% | viability, T/C (second compound 0.316 µM, first compound 1 µM): 57.6% | viability, T/C (second compound 1 µM, first compound 0.00316 µM): 48.5% | viability, T/C (second compound 1 µM, first compound 0.01 µM): 40.5% | viability, T/C (second compound 1 µM, first compound 0.0316 µM): 45.9% | viability, T/C (second compound 1 µM, first compound 0.1 µM): 49.4% | viability, T/C (second compound 1 µM, first compound 0.316 µM): 40.4% | viability, T/C (second compound 1 µM, first compound 1 µM): 61.7% | viability, T/C (second compound 3.16 µM, first compound 0.00316 µM): 42.8% | viability, T/C (second compound 3.16 µM, first compound 0.01 µM): 39.2% | viability, T/C (second compound 3.16 µM, first compound 0.0316 µM): 37.6% | viability, T/C (second compound 3.16 µM, first compound 0.1 µM): 39.8% | viability, T/C (second compound 3.16 µM, first compound 0.316 µM): 43.1% | viability, T/C (second compound 3.16 µM, first compound 1 µM): 46.8% | viability, T/C (second compound 10 µM, first compound 0.00316 µM): 42.7% | viability, T/C (second compound 10 µM, first compound 0.01 µM): 46.4% | viability, T/C (second compound 10 µM, first compound 0.0316 µM): 41.5% | viability, T/C (second compound 10 µM, first compound 0.1 µM): 38.5% | viability, T/C (second compound 10 µM, first compound 0.316 µM): 46% | viability, T/C (second compound 10 µM, first compound 1 µM): 48.5%

IC50 (curve of compound): 1640 nM and 3650 nM
SMILES: COC1C=CCC(C)C(C)S(=O)(=O)NC(=O)c2ccc3c(c2)N(CC2CCC21)CC1(CCCc2cc(Cl)ccc21)CO3 (stereo not given)
viability, T/C (compound 0.0316 µM): 111% and 91.1% | viability, T/C (compound 0.1 µM): 108% and 91.9% | viability, T/C (compound 0.316 µM): 77.9% and 80.8% | viability, T/C (compound 1 µM): 61.1% and 61.5% | viability, T/C (compound 3.16 µM): 37.5% and 61% | viability, T/C (compound 10 µM): 10.5% and 25.6%

IC50 (curve of compound): < 31.6 nM
SMILES: CC(=O)O[C@H]1C(=O)[C@@]2(C)[C@H]([C@H](OC(=O)c3ccccc3)[C@]3(O)C[C@H](OC(=O)[C@H](O)[C@@H](NC(=O)c4ccccc4)c4ccccc4)C(C)=C1C3(C)C)[C@]1(OC(C)=O)CO[C@@H]1C[C@@H]2O
viability, T/C (compound 0.0316 µM): 35.3% and 32% | viability, T/C (compound 0.1 µM): 36.8% and 34.2% | viability, T/C (compound 0.316 µM): 33.2% and 32.9% | viability, T/C (compound 1 µM): 34.6% and 33.4% | viability, T/C (compound 3.16 µM): 39.6% and 35.1% | viability, T/C (compound 10 µM): 35.9% and 36.3%

IC50 (curve of compound): > 10000 nM
SMILES: CC(CO)NC(=O)c1cc(-c2ccc(Cl)cc2)nn(-c2cnn(C)c2)c1=O (stereo not given)
viability, T/C (compound 0.0316 µM): 93.7% and 115% | viability, T/C (compound 0.1 µM): 92.6% and 98.9% | viability, T/C (compound 0.316 µM): 94.8% and 101% | viability, T/C (compound 1 µM): 91.8% and 110% | viability, T/C (compound 3.16 µM): 106% and 116% | viability, T/C (compound 10 µM): 91.5% and 105%
